Test results reported in ChEMBL document CHEMBL1149929, “Novel 2-(2-furo[3,2-b]pyridinyl) pyrrolidines: potent neuronal nicotinic acetylcholine receptor ligands” (Bioorg Med Chem Lett, 1997).

Assays:
[1] = Percent intrinsic activity against IMR-32 cells relative to 100 uM (S)-nicotine.; assay type: functional, Homo sapiens
[2] = biological target: T1, Neuronal acetylcholine receptor; alpha4/beta2 (Homo sapiens, UniProt P17787+P43681); assay: (§1) Percent intrinsic activity against K177 cells relative to 100 uM (S)-nicotine.; assay type: functional, cell-based
Rattus norvegicus [3] = organism: Rattus norvegicus; assay: Percent intrinsic activity relative to 100 uM (S)-nicotine.; assay type: functional
[4] = biological target: T2, Acetylcholine receptor subunit alpha (Homo sapiens, UniProt P02708); assay: Tested for functional activity against alpha-1 neuronal nicotinic acetylcholine receptor(nAChR) expressed in TE671 cells using isotopic rubidium efflux assay.; assay type: cell-based, TE-671
[5] = biological target: T2, Acetylcholine receptor subunit alpha; assay: Percent intrinsic activity against TE671 cells relative to 100 uM (S)-nicotine.; assay type: functional, cell-based; conditions: TE-671
[6] = Tested for functional activity against neuronal nicotinic acetylcholine receptor(nAChR) expressed in IMR-32 cells using isotopic rubidium efflux assay.; assay type: cell-based; conditions: Homo sapiens
[7] = biological target: T1, Neuronal acetylcholine receptor; alpha4/beta2; assay: Tested for functional activity against neuronal nicotinic acetylcholine receptor(nAChR) expressed in K177 cells using isotopic rubidium efflux assay.; assay type: cell-based
Rattus norvegicus [8] = organism: Rattus norvegicus; assay: Tested for nAChR-mediated dopamine release from rat striatal slices.; assay type: functional
[9] = biological target: T2, Acetylcholine receptor subunit alpha; assay: as §1; assay type: functional, cell-based
[10] = biological target: Neuronal acetylcholine receptor; assay: Tested for neuronal nicotinic acetylcholine receptor (nAChR) binding in a whole rat brain preparation using […] as the radioligand.

T1 sequence (P17787 whole entry): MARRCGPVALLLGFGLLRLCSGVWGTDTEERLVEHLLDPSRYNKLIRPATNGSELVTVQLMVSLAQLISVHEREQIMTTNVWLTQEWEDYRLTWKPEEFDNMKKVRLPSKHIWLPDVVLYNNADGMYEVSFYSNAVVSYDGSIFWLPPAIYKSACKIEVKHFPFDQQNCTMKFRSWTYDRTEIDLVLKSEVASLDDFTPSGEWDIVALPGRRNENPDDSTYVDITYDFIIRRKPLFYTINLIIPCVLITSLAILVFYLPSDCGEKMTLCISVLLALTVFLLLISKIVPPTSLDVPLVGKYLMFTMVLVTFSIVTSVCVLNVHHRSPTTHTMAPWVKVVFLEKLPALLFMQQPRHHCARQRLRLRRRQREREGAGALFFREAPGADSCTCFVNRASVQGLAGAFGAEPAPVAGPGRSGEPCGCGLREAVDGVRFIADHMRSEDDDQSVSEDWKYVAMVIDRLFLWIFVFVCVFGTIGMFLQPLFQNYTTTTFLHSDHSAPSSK
T1 sequence (P43681 whole entry): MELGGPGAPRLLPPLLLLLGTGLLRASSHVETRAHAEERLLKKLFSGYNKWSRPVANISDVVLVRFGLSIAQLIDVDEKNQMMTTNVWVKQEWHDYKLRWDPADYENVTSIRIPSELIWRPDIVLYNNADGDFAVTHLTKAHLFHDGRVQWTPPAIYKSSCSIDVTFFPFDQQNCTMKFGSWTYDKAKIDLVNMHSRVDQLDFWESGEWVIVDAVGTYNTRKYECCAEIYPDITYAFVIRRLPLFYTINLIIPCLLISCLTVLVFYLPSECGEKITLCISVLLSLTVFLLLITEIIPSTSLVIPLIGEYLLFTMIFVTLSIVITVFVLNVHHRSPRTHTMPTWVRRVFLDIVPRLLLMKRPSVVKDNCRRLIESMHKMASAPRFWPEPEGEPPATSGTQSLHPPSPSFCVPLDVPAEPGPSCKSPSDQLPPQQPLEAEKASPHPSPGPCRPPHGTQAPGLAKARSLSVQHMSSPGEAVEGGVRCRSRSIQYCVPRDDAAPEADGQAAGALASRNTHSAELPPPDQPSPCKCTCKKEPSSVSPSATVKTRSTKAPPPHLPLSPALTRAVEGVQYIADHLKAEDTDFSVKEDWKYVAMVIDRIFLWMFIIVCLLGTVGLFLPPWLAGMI
T2 sequence (P02708 whole entry): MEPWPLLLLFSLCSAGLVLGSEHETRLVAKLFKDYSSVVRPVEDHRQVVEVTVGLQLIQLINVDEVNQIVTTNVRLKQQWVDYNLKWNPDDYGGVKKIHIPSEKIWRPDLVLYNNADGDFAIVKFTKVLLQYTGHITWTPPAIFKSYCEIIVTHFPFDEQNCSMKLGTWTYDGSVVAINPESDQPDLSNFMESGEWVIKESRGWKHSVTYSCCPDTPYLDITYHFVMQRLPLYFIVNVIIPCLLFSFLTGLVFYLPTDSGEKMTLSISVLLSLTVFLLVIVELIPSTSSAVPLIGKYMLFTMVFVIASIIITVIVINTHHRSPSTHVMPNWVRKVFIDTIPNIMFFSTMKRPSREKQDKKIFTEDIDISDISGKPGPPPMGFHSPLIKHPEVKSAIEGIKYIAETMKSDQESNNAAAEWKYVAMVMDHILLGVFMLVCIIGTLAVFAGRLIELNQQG

Cc1cc([C@@H]2CCCN2C)on1 [ABT-418]
Intrinsic activity [1]: 85%
Intrinsic activity [2]: 93%
Intrinsic activity (Rattus norvegicus [3]): 100%
EC50 [4]: 411 µM
Intrinsic activity [5]: 38%
EC50 [6]: 64 µM
EC50 [7]: 10.6 µM
EC50 (Rattus norvegicus [8]): 380 µM

CN1CCC[C@H]1c1cccnc1 [NICOTINE]
Intrinsic activity [1]: 100%
Intrinsic activity [2]: 100%
Intrinsic activity (Rattus norvegicus [3]): 100%
EC50 [4]: 180 µM
Intrinsic activity [5]: 100%
EC50 [6]: 21 µM

c1cnc2cc([C@@H]3CCCN3)oc2c1
Intrinsic activity [1]: 9.2%
Intrinsic activity [9]: 7.4%
Ki [10]: 0.0758 µM
EC50 [6]: > 1000 µM

CN1CCC[C@@H]1c1cc2ncccc2o1
Intrinsic activity [1]: 15.2%
Intrinsic activity [2]: 5.7%
Ki [10]: 0.0979 µM
EC50 [6]: > 1000 µM
EC50 [7]: > 1000 µM

CN1CCC[C@H]1COc1cccnc1
Intrinsic activity [1]: 77.2%
Intrinsic activity [2]: 100%
Intrinsic activity (Rattus norvegicus [3]): 74%
EC50 [4]: 34 µM
Intrinsic activity [5]: 40%
EC50 [6]: 24 µM
EC50 [7]: 0.75 µM
EC50 (Rattus norvegicus [8]): 107 µM

c1cnc2cc([C@H]3CCCN3)oc2c1
Intrinsic activity [1]: 57.8%
Intrinsic activity [2]: 30%
Ki [10]: 0.00511 µM
EC50 [6]: 41.5 µM
EC50 [7]: 11 µM

CN1CCC[C@H]1c1cc2ncccc2o1
Intrinsic activity [1]: 10.6%
Intrinsic activity [2]: 81%
Intrinsic activity (Rattus norvegicus [3]): 43%
EC50 [4]: > 100 µM
Ki [10]: 0.00273 µM
Intrinsic activity [5]: 18.9%
EC50 [6]: > 1000 µM
EC50 [7]: 3.2 µM
EC50 (Rattus norvegicus [8]): 141 µM
